According to publication PMC7248426 (Translational Oncology, 2020):

Experiments:
CCD841 cells = assay: FITC-labeled peptide immunofluorescence assay, control cells; format: cell-based, human; conditions: fluorescein-labeled peptide, 10 μM, 1 hour at RT, Figure 1B
five colon cancer cells = assay: FITC-labeled peptide immunofluorescence assay, colon cancer cells; format: cell-based, human; conditions: fluorescein-labeled peptide, 10 μM, 1 hour at RT, Figure 1B
[1] = tested on: five colon cancer cell lines; assay: Flow cytometry; format: cell-based, human; conditions: FITC-L20 10 μM, 1 hour at RT, all colon cancer cells, Figure 1C
[2] = tested on: gastric cancer cells including AGS, SNU216, and SNU638; assay: L20 peptide binding to gastric cancer cells; format: cell-based; conditions: Figure 1D

ANLNLWTDYIRW [L20 peptide]
fluorescence on the control cell line (CCD841 cells): negligible | fluorescence on colon cancer cells (five colon cancer cells): very intense fluorescence | FACS fluorescence compared to the control peptide [1]: right shift of fluorescence | fluorescence in gastric cancer cell lines compared to the control cells [2]: did not show higher fluorescence
